Publication PMC9229919, “4-Aminoquinoline-Based Adamantanes as Potential Anticholinesterase Agents in Symptomatic Treatment of Alzheimer’s Disease” (Pharmaceutics, 2022)
Where two headings read alike, the source gives them in different places.

Columns and labels:
[1] = standard compounds of the interpolation method; cited from earlier work
purified human BChE [2] = target: T1, purified human BChE (Homo sapiens, UniProt P06276); set-up: method as in PMID 31600664; details: previously tested derivative 2 (CQAd); ref [38]; cited from earlier work
T1 construct: possibly also a gift of Dr Florian Nachon (the sentence is ambiguous)

[3] = Reverse-phase thin-layer chromatographic lipophilicity (RF, RM0); assay type: physicochemical; details: for RM0: intercept of RM = RM0 + bC; for b: slope of RM = RM0 + bC; for RF, Methanol/Water/Hydrochloric acid (conc.), mobile phase I / RF, Dioxane/Water/Hydrochloric acid (conc.), mobile phase II / RF, Methanol/Water/Hydrochloric acid (conc.), mobile phase II / RF, Acetone/Water/Hydrochloric acid (conc.), mobile phase III / RF, Dioxane/Water/Hydrochloric acid (conc.), mobile phase III / RF, Methanol/Water/Hydrochloric acid (conc.), mobile phase III / RF, Dioxane/Water/Hydrochloric acid (conc.), mobile phase IV / RF, Acetone/Water/Hydrochloric acid (conc.), mobile phase IV / RF, Methanol/Water/Hydrochloric acid (conc.), mobile phase IV / RF, Acetone/Water/Hydrochloric acid (conc.), mobile phase IX / RF, Methanol/Water/Hydrochloric acid (conc.), mobile phase IX / RF, Dioxane/Water/Hydrochloric acid (conc.), mobile phase V / RF, Acetone/Water/Hydrochloric acid (conc.), mobile phase V / RF, Methanol/Water/Hydrochloric acid (conc.), mobile phase V / RF, Dioxane/Water/Hydrochloric acid (conc.), mobile phase VI / RF, Acetone/Water/Hydrochloric acid (conc.), mobile phase VI / RF, Methanol/Water/Hydrochloric acid (conc.), mobile phase VI / RF, Acetone/Water/Hydrochloric acid (conc.), mobile phase VII / RF, Methanol/Water/Hydrochloric acid (conc.), mobile phase VII / RF, Acetone/Water/Hydrochloric acid (conc.), mobile phase VIII / RF, Methanol/Water/Hydrochloric acid (conc.), mobile phase VIII: RP-18 silica; for RF, Methanol/Water/Hydrochloric acid (conc.), mobile phase I: I = 90%MeOH/5%H2O/5%HCl; for RF, Dioxane/Water/Hydrochloric acid (conc.), mobile phase II: II = 80%Dioxane/15%H2O/5%HCl; for RF, Methanol/Water/Hydrochloric acid (conc.), mobile phase II: II = 85%MeOH/10%H2O/5%HCl; for RF, Acetone/Water/Hydrochloric acid (conc.), mobile phase III: III = 70%AC/25%H2O/5%HCl; for RF, Dioxane/Water/Hydrochloric acid (conc.), mobile phase III: III = 70%Dioxane/25%H2O/5%HCl; for RF, Methanol/Water/Hydrochloric acid (conc.), mobile phase III: III = 80%MeOH/15%H2O/5%HCl; for RF, Dioxane/Water/Hydrochloric acid (conc.), mobile phase IV: IV = 60%Dioxane/35%H2O/5%HCl; for RF, Acetone/Water/Hydrochloric acid (conc.), mobile phase IV: IV = 65%AC/30%H2O/5%HCl; for RF, Methanol/Water/Hydrochloric acid (conc.), mobile phase IV: IV = 75%MeOH/20%H2O/5%HCl; for RF, Acetone/Water/Hydrochloric acid (conc.), mobile phase IX: IX = 40%AC/55%H2O/5%HCl; for RF, Methanol/Water/Hydrochloric acid (conc.), mobile phase IX: IX = 50%MeOH/45%H2O/5%HCl; for RF, Dioxane/Water/Hydrochloric acid (conc.), mobile phase V: V = 50%Dioxane/45%H2O/5%HCl; for RF, Acetone/Water/Hydrochloric acid (conc.), mobile phase V: V = 60%AC/35%H2O/5%HCl; for RF, Methanol/Water/Hydrochloric acid (conc.), mobile phase V: V = 70%MeOH/25%H2O/5%HCl; for RF, Dioxane/Water/Hydrochloric acid (conc.), mobile phase VI: VI = 40%Dioxane/55%H2O/5%HCl; for RF, Acetone/Water/Hydrochloric acid (conc.), mobile phase VI: VI = 55%AC/40%H2O/5%HCl; for RF, Methanol/Water/Hydrochloric acid (conc.), mobile phase VI: VI = 65%MeOH/30%H2O/5%HCl; for RF, Acetone/Water/Hydrochloric acid (conc.), mobile phase VII: VII = 50%AC/45%H2O/5%HCl; for RF, Methanol/Water/Hydrochloric acid (conc.), mobile phase VII: VII = 60%MeOH/35%H2O/5%HCl; for RF, Acetone/Water/Hydrochloric acid (conc.), mobile phase VIII: VIII = 45%AC/50%H2O/5%HCl; for RF, Methanol/Water/Hydrochloric acid (conc.), mobile phase VIII: VIII = 55%MeOH/40%H2O/5%HCl
Summary of the method: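 Reverse-phase TLC using mobile phases of methanol, acetone or dioxane with water and hydrochloric acid. Methanol varied in 10% steps; development distance 4.5 cm, ambient temperature (22±2 °C). RF measured and RM0 derived from retention.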

purified human BChE [4] = target: T1, purified human BChE; experiment: biochemical; assay type: biochemical
Summary of the method: (§1)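 Modified Ellman assay with acetylthiocholine and DTNB in 0.1 M sodium phosphate pH 7.4 (enzymes diluted with 0.1% BSA), ≤0.2% DMSO, 25 °C. At least three inhibitor concentrations per substrate level; Ki,app from Hunter–Downs equation, Ki from y-intercept and inhibition type from Ki,app vs [S].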

recombinant human AChE = target: T2, recombinant human AChE (Homo sapiens, UniProt P22303); experiment: biochemical; assay type: biochemical; details: for IS: IS = Ki(BChE)/Ki(AChE), IS > 1 selective to AChE
T2 construct: gift of Dr Florian Nachon (Armed Forces Biomedical Research Institute, Brétigny-sur-Orge, France)
Summary of the method: as §1

[5] = Ferric reducing antioxidant power (FRAP) assay; details: for FRAP: mean ± standard error of three experiments;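 for FRAP: expressed as µM Fe2+ equivalents from an FeSO4·7H2O standard curve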
Summary of the method: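 Compounds at 10 and 100 µM were mixed with FRAP reagent (300 mM acetate buffer pH 3.6, TPTZ in HCl, FeCl3, 10:1:1) and incubated 60 min at 37 °C. Fe^2+-TPTZ formation read at 593 nm against a blank. Values derived from an Fe2SO4·7H2O standard curve, three independent experiments.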

physchem = details: octadecyl-modified silica RP-18W F254s TLC plates, pH 0.5
From the text: The mobile phase contained an organic modifier (methanol, acetone or dioxane), water, and hydrochloric acid. The content of hydrochloric acid was kept constant at 5% v/v, while the portions of organic modifier and water varied. […] Mobile phase MeOH/H2O/HCl, 70:25:5 (vol%) was used to determine the partition coefficients, logDexp, of the tested compounds at pH 0.5 (Supplementary Materials File S3 Table S7).
Chromatographic determination of lipophilicity
Lipophilicity of synthesized compounds was evaluated under reversed-phase thin-layer
chromatographic condition using the vertical developing chamber (CAMAG, Muttenz, Switzerland)
The mobile phase contained organic modifier (methanol, acetone or dioxane), water and hydrochloric acid. The content of hydrochloric acid was kept constant at 5 %v/v
while the portion of the organic modifier and water were changed. Methanol was varied in the range
with an increment of 10%. The chamber was saturated with a mobile phase being used 15 minutes
before chromatogram development. The solvent developing distance was 4.5 cm. Detection of
All experiments were performed at ambient temperature (22±2 °C). Retention parameters were calculated as previously described [7].
The logD values of the investigated substances were determined by the interpolation procedure. […]
LogD values of the investigated substances were determined from the equation of the calibration […]

[6] = Acetone/Water/Hydrochloric acid (conc.)
[7] = Dioxane/Water/Hydrochloric acid (conc.)
[8] = Methanol/Water/Hydrochloric acid (conc.)
[9] = logarithm of Ki in µM, BChE, dependent variable of the QSAR model, read-out: Y Measured 2 log(ki)Bche, log (Ki/µM BChE) (converted)
[10] = ± standard error, 25 °C, ATCh substrate, read-out: Ki BChE
[11] = log (Ki/µM AChE), read-out: Y Measured 1 log(ki)Ache (converted)
[12] = ± standard error, 25 °C, ATCh substrate, read-out: Ki AChE

T2 sequence (P22303 32-614): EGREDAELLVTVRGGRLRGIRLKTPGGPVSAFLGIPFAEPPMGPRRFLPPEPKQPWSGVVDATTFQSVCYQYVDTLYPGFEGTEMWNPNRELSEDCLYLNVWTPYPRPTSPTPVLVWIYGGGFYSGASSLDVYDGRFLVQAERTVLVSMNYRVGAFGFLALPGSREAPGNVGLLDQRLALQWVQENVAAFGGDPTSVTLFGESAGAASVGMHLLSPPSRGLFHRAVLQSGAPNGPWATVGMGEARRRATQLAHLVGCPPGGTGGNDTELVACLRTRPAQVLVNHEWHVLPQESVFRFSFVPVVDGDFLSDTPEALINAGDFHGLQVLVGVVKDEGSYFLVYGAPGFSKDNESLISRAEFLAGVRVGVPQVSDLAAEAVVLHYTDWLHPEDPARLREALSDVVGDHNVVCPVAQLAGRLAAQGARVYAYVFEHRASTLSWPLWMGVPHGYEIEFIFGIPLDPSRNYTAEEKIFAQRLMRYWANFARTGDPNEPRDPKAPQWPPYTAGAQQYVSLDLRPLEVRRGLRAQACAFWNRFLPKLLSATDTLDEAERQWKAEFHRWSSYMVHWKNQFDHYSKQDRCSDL
T1 sequence (P06276 29-602): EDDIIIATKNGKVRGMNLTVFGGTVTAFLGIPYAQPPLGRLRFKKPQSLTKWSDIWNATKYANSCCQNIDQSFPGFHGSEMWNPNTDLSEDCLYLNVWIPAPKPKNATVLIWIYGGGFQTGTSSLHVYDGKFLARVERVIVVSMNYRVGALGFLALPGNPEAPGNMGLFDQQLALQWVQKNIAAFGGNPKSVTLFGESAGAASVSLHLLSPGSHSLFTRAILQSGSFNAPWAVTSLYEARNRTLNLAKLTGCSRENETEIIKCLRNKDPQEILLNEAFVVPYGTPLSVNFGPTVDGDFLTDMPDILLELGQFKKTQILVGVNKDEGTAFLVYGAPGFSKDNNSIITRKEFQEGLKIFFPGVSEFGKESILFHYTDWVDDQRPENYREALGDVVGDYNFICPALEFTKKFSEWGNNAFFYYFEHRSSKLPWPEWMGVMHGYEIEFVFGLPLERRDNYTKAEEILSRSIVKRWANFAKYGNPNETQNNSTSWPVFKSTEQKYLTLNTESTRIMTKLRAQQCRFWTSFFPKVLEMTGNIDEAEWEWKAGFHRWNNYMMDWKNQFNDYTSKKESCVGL

SMILES | RM0 [3, 6] | b [3, 6] | RM0 [3, 7] | b [3, 7] | RM0 [3, 8] | b [3, 8] | RF, Methanol/Water/Hydrochloric acid (conc.), mobile phase I [3] | RF, Dioxane/Water/Hydrochloric acid (conc.), mobile phase II [3] | RF, Methanol/Water/Hydrochloric acid (conc.), mobile phase II [3] | RF, Acetone/Water/Hydrochloric acid (conc.), mobile phase III [3] | RF, Dioxane/Water/Hydrochloric acid (conc.), mobile phase III [3] | RF, Methanol/Water/Hydrochloric acid (conc.), mobile phase III [3] | RF, Dioxane/Water/Hydrochloric acid (conc.), mobile phase IV [3] | RF, Acetone/Water/Hydrochloric acid (conc.), mobile phase IV [3] | RF, Methanol/Water/Hydrochloric acid (conc.), mobile phase IV [3] | RF, Acetone/Water/Hydrochloric acid (conc.), mobile phase IX [3] | RF, Methanol/Water/Hydrochloric acid (conc.), mobile phase IX [3] | RF, Dioxane/Water/Hydrochloric acid (conc.), mobile phase V [3] | RF, Acetone/Water/Hydrochloric acid (conc.), mobile phase V [3] | RF, Methanol/Water/Hydrochloric acid (conc.), mobile phase V [3] | further results
Oc1ccc(Cl)cc1Cl [2,4-dihlorfenol] | – | – | – | – | – | – | – | – | – | – | – | – | – | – | – | – | – | – | – | – | pKa1 [1]: 7.89
Oc1cccc2ccccc12 [Compound 1-naftol] | – | – | – | – | – | – | – | – | – | – | – | – | – | – | – | – | – | – | – | – | pKa1 [1]: 9.34
Clc1ccc2c(NCCCNCC34CC5CC(CC(C5)C3)C4)ccnc2c1 [Compound 2] | 1.795 | 2.949 | 0.8129 | 1.796 | 2.34 | 3.123 | 0.73 | 0.78 | 0.67 | 0.61 | 0.73 | 0.52 | 0.73 | 0.58 | 0.53 | 0.15 | 0.11 | 0.55 | 0.5 | 0.47 | Ki (purified human BChE [2]): 3.2 ± 0.4 µM; RF, Dioxane/Water/Hydrochloric acid (conc.), mobile phase VI [3]: 0.4; RF, Acetone/Water/Hydrochloric acid (conc.), mobile phase VI [3]: 0.41; RF, Methanol/Water/Hydrochloric acid (conc.), mobile phase VI [3]: 0.43; RF, Acetone/Water/Hydrochloric acid (conc.), mobile phase VII [3]: 0.35; RF, Methanol/Water/Hydrochloric acid (conc.), mobile phase VII [3]: 0.25; RF, Acetone/Water/Hydrochloric acid (conc.), mobile phase VIII [3]: 0.3; RF, Methanol/Water/Hydrochloric acid (conc.), mobile phase VIII [3]: 0.19; less potent inhibitors of BChE than compounds 3 or 4 (purified human BChE [4]): about 3.2 times; Ki (purified human BChE [4]; [9]): 3.2 µM; IS (recombinant human AChE): 4.2; Y Measured 1 log(ki)Ache (recombinant human AChE; log (Ki/µM AChE)): -1.14E-01; FRAP ([5]; 10 µM compound): 19 ± 2 µM; FRAP ([5]; 100 µM compound): 64 ± 5 µM
Clc1ccc2c(Nc3cccc4c(NCCC56CC7CC(CC(C7)C5)C6)cccc34)ccnc2c1 [Compound 19] | 1.657 | 2.289 | 1.551 | 2.623 | 3.685 | 4.54 | 0.67 | 0.7 | 0.61 | 0.49 | 0.66 | 0.44 | 0.63 | 0.41 | 0.35 | 0.15 | 0 | 0.53 | 0.3 | 0.3 | chromatographic logD (physchem): -4.12; RF, Dioxane/Water/Hydrochloric acid (conc.), mobile phase VI [3]: 0.13; RF, Acetone/Water/Hydrochloric acid (conc.), mobile phase VI [3]: 0.28; RF, Methanol/Water/Hydrochloric acid (conc.), mobile phase VI [3]: 0.21; RF, Acetone/Water/Hydrochloric acid (conc.), mobile phase VII [3]: 0.25; RF, Methanol/Water/Hydrochloric acid (conc.), mobile phase VII [3]: 0.1; RF, Acetone/Water/Hydrochloric acid (conc.), mobile phase VIII [3]: 0.2; RF, Methanol/Water/Hydrochloric acid (conc.), mobile phase VIII [3]: 0.04; decrease in BChE inhibition vs compound 5 (purified human BChE [4]): up to 275 times; Ki (purified human BChE [4]; [9]): 21.9 µM; Ki (purified human BChE [4]; [10]): 22 ± 2 µM; IS (recombinant human AChE): 5.8; Ki (recombinant human AChE; [11]): 3.8 µM; Ki (recombinant human AChE; [12]): 3.8 ± 0.3 µM; FRAP ([5]; 10 µM compound): 336 ± 12 µM; FRAP ([5]; 100 µM compound): 2450 ± 210 µM; reducing power (in words) ([5]; 10 and 100 µM): very good reducing power comparable to that of BHT and Trolox
Clc1ccc2c(NCCCN3CCN(CCCNCC45CC6CC(CC(C6)C4)C5)CC3)ccnc2c1 [Compound 22] | 1.4989 | 2.763 | 0.5478 | 1.493 | 1.56 | 2.199 | 0.67 | 0.78 | 0.7 | 0.71 | 0.76 | 0.6 | 0.78 | 0.68 | 0.59 | 0.28 | 0.22 | 0.6 | 0.61 | 0.5 | RF, Dioxane/Water/Hydrochloric acid (conc.), mobile phase VI [3]: 0.48; RF, Acetone/Water/Hydrochloric acid (conc.), mobile phase VI [3]: 0.51; RF, Methanol/Water/Hydrochloric acid (conc.), mobile phase VI [3]: 0.45; RF, Acetone/Water/Hydrochloric acid (conc.), mobile phase VII [3]: 0.43; RF, Methanol/Water/Hydrochloric acid (conc.), mobile phase VII [3]: 0.38; RF, Acetone/Water/Hydrochloric acid (conc.), mobile phase VIII [3]: 0.36; RF, Methanol/Water/Hydrochloric acid (conc.), mobile phase VIII [3]: 0.31; Ki (purified human BChE [4]; [9]): 3.3 µM; Ki (purified human BChE [4]; [10]): 3.3 ± 0.2 µM; IS (recombinant human AChE): 4.8; Ki (recombinant human AChE; [11]): 0.69 µM; Ki (recombinant human AChE; [12]): 0.69 ± 0.02 µM; FRAP ([5]; 10 µM compound): 11 ± 3 µM; FRAP ([5]; 100 µM compound): 34 ± 8 µM
